Laboratory results taken from ChEMBL document CHEMBL1201862, “PubChem BioAssay data set” (2004).
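Cultured in 96-well plates, cells were exposed to test compound for 48 hours across five concentrations. GI50: concentration for 50% inhibition of growth.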 Active and inactive are the calls of the source. Rule as the data show it: active = GI50 up to about 1.1 µM and inactive = higher.

Tests used:
Assay in all cases: NCI anticancer screen, dose series, 48 h
HOP-62 = tested on: HOP-62
SR = tested on: SR
HCT-15 = tested on: HCT-15
UO-31 = tested on: UO-31
NCI-H23 = tested on: NCI-H23
SNB-75 = tested on: SNB-75
M19-MEL = tested on: M19-MEL
DMS-114 = tested on: DMS-114
K562 = tested on: K562
OVCAR-4 = tested on: OVCAR-4
Malme-3M = tested on: Malme-3M
NCI-H522 = tested on: NCI-H522
CAKI-1 = tested on: CAKI-1
ACHN = tested on: ACHN
SF-268 = tested on: SF-268
OVCAR-8 = tested on: OVCAR-8
RXF 393 = tested on: RXF 393
DLD-1 = tested on: DLD-1
SW-620 = tested on: SW-620
OVCAR-3 = tested on: OVCAR-3
UACC-257 = tested on: UACC-257
U-251 = tested on: U-251
SK-MEL-2 = tested on: SK-MEL-2
HOP-18 = tested on: HOP-18
IGROV-1 = tested on: IGROV-1
HT-29 = tested on: HT-29
SK-MEL-5 = tested on: SK-MEL-5
COLO 205 = tested on: COLO 205
SK-MEL-28 = tested on: SK-MEL-28
MOLT-4 = tested on: MOLT-4
NCI-H460 = tested on: NCI-H460
HOP-92 = tested on: HOP-92
TK-10 = tested on: TK-10
HL-60 = tested on: HL-60
LXFL 529 = tested on: LXFL 529
M14 = tested on: M14
NCI-H226 = tested on: NCI-H226
EKVX = tested on: EKVX
A549 = tested on: A549
KM12 = tested on: KM12
CCRF-CEM = tested on: CCRF-CEM
SNB-78 = tested on: SNB-78
KM-20L2 = tested on: KM-20L2
SN12C = tested on: SN12C
OVCAR-5 = tested on: OVCAR-5
HCT-116 = tested on: HCT-116
UACC-62 = tested on: UACC-62
LOX IMVI = tested on: LOX IMVI
SK-OV-3 = tested on: SK-OV-3
786-0 = tested on: 786-0
SF-295 = tested on: SF-295
A498 = tested on: A498
SNB-19 = tested on: SNB-19
HCC 2998 = tested on: HCC 2998
RPMI-8226 = tested on: RPMI-8226
DMS-273 = tested on: DMS-273
SF-539 = tested on: SF-539

For `COc1cc2c(cc1O)CN1CCC23C=C[C@@H](O)CC13` (some centres undefined), the GI50 (HOP-62) was > 100 µM (inactive), the GI50 (SR) was 40.6 µM (inactive) and the GI50 (HCT-15) was 68.4 µM. For the same compound, the GI50 (UO-31) was > 100 µM (inactive), the GI50 (NCI-H23) was 78.7 µM (inactive) and the GI50 (SNB-75) was 59.4 µM (inactive). For the same compound, the GI50 (M19-MEL) was 38.1 µM (inactive), the GI50 (DMS-114) was 54.5 µM (inactive) and the GI50 (K562) was 51.3 µM (inactive). For the same compound, the GI50 (OVCAR-4) was 33.2 µM (inactive), the GI50 (Malme-3M) was > 100 µM (inactive) and the GI50 (NCI-H522) was 52.4 µM (inactive). The GI50 (CAKI-1) was > 100 µM (inactive), the GI50 (ACHN) was 57.5 µM (inactive) and the GI50 (SF-268) was 59.6 µM (inactive). The GI50 (OVCAR-8) was 38.1 µM (inactive), the GI50 (RXF 393) was 38.2 µM (inactive) and the GI50 (DLD-1) was 63 µM (inactive). The GI50 (SW-620) was 59.6 µM (inactive), the GI50 (OVCAR-3) was > 100 µM (inactive) and the GI50 (UACC-257) was 79.4 µM (inactive). For the same compound, the GI50 (U-251) was 46.7 µM (inactive), the GI50 (SK-MEL-2) was 44.8 µM (inactive) and the GI50 (HOP-18) was 71 µM (inactive). For the same compound, the GI50 (IGROV-1) was 88.3 µM (inactive), the GI50 (HT-29) was 47.5 µM (inactive) and the GI50 (SK-MEL-5) was 39.6 µM (inactive). For the same compound, the GI50 (COLO 205) was 27.7 µM (inactive), the GI50 (SK-MEL-28) was 76.4 µM (inactive) and the GI50 (MOLT-4) was 45.5 µM (inactive). For the same compound, the GI50 (NCI-H460) was 62.8 µM (inactive), the GI50 (HOP-92) was > 100 µM (inactive) and the GI50 (TK-10) was > 100 µM (inactive). The GI50 (HL-60) was 15.2 µM (inactive), the GI50 (LXFL 529) was 51.3 µM (inactive) and the GI50 (M14) was 41 µM (inactive). For the same compound, the GI50 (NCI-H226) was 76.4 µM (inactive), the GI50 (EKVX) was 65.8 µM (inactive) and the GI50 (A549) was 75.2 µM (inactive). For the same compound, the GI50 (KM12) was 54 µM (inactive), the GI50 (CCRF-CEM) was 28.2 µM (inactive) and the GI50 (SNB-78) was > 100 µM (inactive). For the same compound, the GI50 (KM-20L2) was > 100 µM (inactive), the GI50 (SN12C) was 46.2 µM (inactive) and the GI50 (OVCAR-5) was > 100 µM (inactive). For the same compound, the GI50 (HCT-116) was 34.1 µM (inactive), the GI50 (UACC-62) was > 100 µM (inactive) and the GI50 (LOX IMVI) was 46.6 µM (inactive). The GI50 (SK-OV-3) was > 100 µM (inactive), the GI50 (786-0) was 76.4 µM (inactive) and the GI50 (SF-295) was 96.2 µM (inactive). The GI50 (A498) was > 100 µM (inactive), the GI50 (SNB-19) was 55.6 µM (inactive) and the GI50 (HCC 2998) was 56.9 µM (inactive). For the same compound, the GI50 (RPMI-8226) was > 100 µM (inactive) and the GI50 (DMS-273) was 57.4 µM (inactive).
`CCOC12SC(Nc3ccc(C)cc3)=NN1C(=S)N(C)N=C2C` (centres undefined) was tested, and the GI50 (HOP-62) was > 100 µM (inactive), the GI50 (SR) was > 100 µM (inactive) and the GI50 (HCT-15) was over 100 µM. The GI50 (NCI-H23) was > 100 µM (inactive), the GI50 (SNB-75) was > 100 µM (inactive) and the GI50 (M19-MEL) was > 100 µM (inactive). The GI50 (DMS-114) was > 100 µM (inactive), the GI50 (K562) was > 100 µM (inactive) and the GI50 (OVCAR-4) was > 100 µM (inactive). For the same compound, the GI50 (NCI-H522) was > 100 µM (inactive), the GI50 (ACHN) was > 100 µM (inactive) and the GI50 (SF-268) was > 100 µM (inactive). For the same compound, the GI50 (OVCAR-8) was > 100 µM (inactive), the GI50 (RXF 393) was > 100 µM (inactive) and the GI50 (DLD-1) was > 100 µM (inactive). For the same compound, the GI50 (SW-620) was > 100 µM (inactive), the GI50 (UACC-257) was > 100 µM (inactive) and the GI50 (U-251) was > 100 µM (inactive). The GI50 (HOP-18) was > 100 µM (inactive), the GI50 (IGROV-1) was > 100 µM (inactive) and the GI50 (HT-29) was > 100 µM (inactive). For the same compound, the GI50 (SF-539) was > 100 µM (inactive), the GI50 (SK-MEL-5) was > 100 µM (inactive) and the GI50 (COLO 205) was > 100 µM (inactive). The GI50 (SK-MEL-28) was > 100 µM (inactive), the GI50 (MOLT-4) was > 100 µM (inactive) and the GI50 (NCI-H460) was > 100 µM (inactive). The GI50 (HOP-92) was > 100 µM (inactive), the GI50 (HL-60) was > 100 µM (inactive) and the GI50 (LXFL 529) was > 100 µM (inactive). The GI50 (M14) was > 100 µM (inactive), the GI50 (NCI-H226) was > 100 µM (inactive) and the GI50 (EKVX) was > 100 µM (inactive). For the same compound, the GI50 (A549) was > 100 µM (inactive), the GI50 (KM12) was > 100 µM (inactive) and the GI50 (CCRF-CEM) was > 100 µM (inactive). The GI50 (KM-20L2) was > 100 µM (inactive), the GI50 (SN12C) was > 100 µM (inactive) and the GI50 (OVCAR-5) was > 100 µM (inactive). The GI50 (HCT-116) was > 100 µM (inactive), the GI50 (UACC-62) was > 100 µM (inactive) and the GI50 (LOX IMVI) was > 100 µM (inactive). The GI50 (786-0) was > 100 µM (inactive), the GI50 (SF-295) was > 100 µM (inactive) and the GI50 (A498) was > 100 µM (inactive). The GI50 (SNB-19) was > 100 µM (inactive), the GI50 (RPMI-8226) was > 100 µM (inactive) and the GI50 (DMS-273) was > 100 µM (inactive).
